Legend:
[1] = target: T1, Rac1-Tiam1 interactions (Homo sapiens, UniProt P63000); experiment: Rho-GEF exchange assay with purified Tiam1 and Rac1 (Cytoskeleton BK100 kit); format: biochemical
T1 construct: purchased Cytoskeleton, Inc. BK100
Experimental: (§1) FIGS. 3A-3C depicts various properties of compound C20. FIG. 3A) Compound C20 inhibits PDGF-mediated Rac1-GTP activity at 0.5 μM in murine-derived neurofibroma cells. After 24-hour starvation in 0.5% BSA/DMEM, Nf1−/− Schwann cells were pretreated with compound C20 at the indicated concentrations. Cells were then stimulated with 50 ng/mL PDGF for 2 minutes and harvested for immunoprecipitation and activity assays. FIG. 3B) Compound C20 specifically interfered with Rac1-Tiam1 interactions at 15 nM in a GEF assay using purified protein. FIG. 3C) In [^3H]-thymidine dose-inhibition experiments, murine derived Nf1−/− Schwann cells were pre-treated with increasing quantities of the known Rac1 inhibitor NSC23766 or with putative Rac1 inhibitor C20.
Rho-GEF exchange experiments using a commercially available kit that measures guanine exchange fluorescence quantification (Cat #BK100; Cytoskeleton, Inc., Denver, Colo.) were conducted to measure GEF inhibition by C20.

[2] = test system: Ras-GTP; experiment: Ras-GTP activation; format: cell-based; conditions: data not shown
From the text: (§2) No effect of C20 on Ras-GTP activation or Akt phosphorylation was observed (data not shown). However, C20 mitigated Erk1/2 phosphorylation.

[3] = test system: Nf1-/- Schwann cells; experiment: PDGF-mediated proliferation of NF1-deficient Schwann cells ([3H]-thymidine); format: cell-based, murine
Experimental: as §1
In initial screens assaying platelet derived growth factor (PDGF)-mediated proliferation in NF1-deficient Schwann cells, compound C20 (KM04569, Ryan Scientific) was identified. C20 inhibited Schwann cell proliferation at 2 μM and Rac1GTP activity at 0.5 μM (FIGS. 3A-C). The structure of C20 is shown below:
Several analogs of C20 were identified or synthesized and were then screened using the NF1−/− Schwann cell proliferation assay. The initial set of thirteen analogs were developed (Table 1; First SAR) by making substitutions in the C and D pharmacophore elements.

[4] = test system: Akt; experiment: Akt phosphorylation; format: cell-based; conditions: data not shown
From the text: as §2

[5] = target: T2, Rac1-GTP (Mus musculus, UniProt P63001); experiment: PDGF-mediated Rac1-GTP activity in Nf1-/- Schwann cells (immunoprecipitation and activity assay); format: cell-based; conditions: murine-derived neurofibroma cells (Nf1-/- Schwann cells), 50 ng/mL PDGF for 2 minutes
T2 construct: endogenous in cells; host or cells: murine-derived Nf1-/- Schwann cells
Experimental: FIG. 2 depicts the inhibition of Rac1-GTP activity by compound C20-26. Compound C20-26 inhibits PDGF-mediated Rac1-GTP activity at 40 nM in murine-derived neurofibroma cells. After 24-hour starvation in 0.5% BSA/DMEM, Nf1−/−Schwann cells were pretreated with compound C20-26 at the indicated concentrations. Cells were then stimulated with 50 ng/mL PDGF for 2 minutes and harvested for immunoprecipitation.
as §1

[6] = test system: Erk1/2; experiment: Erk1/2 phosphorylation; format: cell-based
From the text: as §2

[7] = target: Rac1 (Homo sapiens, UniProt P63000); conditions: previous work; cited from earlier work
[8] = previous work; cited from earlier work

Compound: O=S(=O)(Oc1cc(Cl)cc(Cl)c1)c1ccc(-c2ccccn2)s1 [Compound C20]
- concentration interfering with Rac1-Tiam1 interactions ([1]; GEF assay using purified protein): 15 nM
- GEF inhibition ([1]; incubating Tiam1 and Rac1): dose-dependent GEF inhibition
- effect on Ras-GTP activation [2]: No effect
- IC50 ([3]; Mus musculus, murine derived Nf1-/- Schwann cells, approximate, read-out: IC50, [3H]-thymidine dose-inhibition): ~2000 nM
- concentration inhibiting Schwann cell proliferation ([3]; PDGF-mediated proliferation, NF1-deficient Schwann cells): 2 µM
- effect on Akt phosphorylation [4]: No effect
- concentration inhibiting PDGF-mediated Rac1-GTP activity [5]: 0.5 µM
- effect on Erk1/2 phosphorylation [6]: mitigated

Compound: CCn1c2ccccc2c2cc(Nc3ccnc(NCCCN4CCOCC4)n3)ccc21 [EHop-016]
- concentration inhibiting Rac1 [7]: 1.1 µM

Compound: CCN(CC)CCCC(C)Nc1nc(C)cc(Nc2ccc3nc(C)cc(N)c3c2)n1 (stereo not shown) [NSC23766]
- toxicity [8]: high toxicity
